Like-named read-outs stand apart in the source and are kept apart here.
Key:
Male C57Bl/6J mice [1] = assay: Elevated plus maze (EPM), DOI 2 mg/kg in all conditions; assay type: in vivo; conditions: for Distance Traveled Open (DTO) Mean / Percent open (PCT) Mean: Table 1
Male BalbC/J mice = assay: Rodent forced swim test (FST), immobility time; assay type: in vivo
Source text: Male BalbC/J mice (8 weeks old) from Jackson Laboratories (Bar Harbor, Me.) were used. Upon receipt, mice were assigned unique identification numbers (tail marked) and were group housed in OPTImice cages. All animals were acclimated to the colony room for 1 week prior to testing. During the period of acclimation, animals were examined on a regular basis, handled, and weighed to assure adequate health and suitability. Animals were maintained on a 12/12 light/dark cycle. The room temperature was maintained between 20 and 23° C. with a relative humidity maintained between 30% and 70%. Chow and water were provided ad libitum for the duration of the study. All testing was performed during the animal's light cycle phase.
Mice were acclimated to the test room at least 1 hour prior to commencing the test. The forced swimming test consisted of one 6-minute session of forced swimming in individual opaque cylinders (15 cm tall×10 cm wide, 1000 ml beakers) containing fresh tap water at a temperature of 23±2° C. and a depth of 12 cm (approximately 800 ml) for each test animal. The time the animal spent immobile was recorded over the 6 min trial. Every 1 min the cumulative immobility time was recorded from the start of the session and noted on the study data record sheet. Immobility was defined as the postural position of floating in the water. The animals were generally observed with the back slightly hunched and the head above water with no movements or with small stabilizing movements of the limbs. After the swim test, each animal was placed in a pre-heated cage with a heating pad and allowed to dry.
The main variable used to represent immobility in this test was the total time immobile during the 6-min test period. Statistics were performed by analysis of variance (ANOVA) with Dunnett post-hoc testing vs. the control condition or by t-test as appropriate.
Sertraline, a known antidepressant, is used as a positive control.
For this study, further NMDAR antagonist compounds were tested for their ability to reduce immobility time in the rodent FST test, indicative of potential anti-depressant effects, and further 5-HT2AR antagonists were tested for their ability to produce reductions of time spent in the open arms of the EPM, indicative to potential liability to induce anxiety, akathisia and suicidality in humans

[2] = Pharmacokinetics of D-cycloserine in rodents (plasma, IP); assay type: in vivo, mice
Procedure: For this study, male C57BL/6J mice (8 weeks old) from Jackson Laboratories (Bar Harbor, Me.) were used.
For each treatment group a total of 12 mice were dosed: 4 mice were collected at 30, 60 and 120 min. Mean plasma level was computed over this time period.

Male C57Bl/6J mice [3] = conditions: previously demonstrated, cited from earlier work
[4] = cited from earlier work; for Serum concentration: mean dose 8.8 mg/kg, patients (Hung et al.)
[5] = acidic gastric conditions, gastric emptying up to 3 hours; cited from earlier work
[6] = Pharmacokinetics of D-cycloserine in humans (literature)

## N[C@@H]1CON=C1O [D-cycloserine, 3-Isoxazolidinone, 4-amino-, (4R)-(9CI)]
Male C57Bl/6J mice [1]; DCS 300 mg/kg vs 30 mg/kg with MDL100,907 (Table 1 lines 6,7)
  Reversal of the effects of MDL100,907 in the EPM, in words: significantly reverses the effects of MDL100,907 at a dose of 300 mg/kg, but not 30 mg/kg
Male C57Bl/6J mice [1]; DCS 300 mg/kg with aripiprazole 1 mg/kg
  Effect in the EPM in the presence of aripiprazole, in words: no significant effect
Male C57Bl/6J mice [1]; DCS 300 mg/kg with lurasidone 0.1-0.3 mg/kg
  Reversal of the effects of lurasidone in the EPM, in words: significantly reverses the effects of lurasidone
Male C57Bl/6J mice [1]; DCS 300 mg/kg with quetiapine 30 mg/kg
  Reversal of the effects of quetiapine in the EPM, in words: reversed at trend level
Male C57Bl/6J mice [1]; 30 mg/kg ip alone
  Distance Traveled Open (DTO) Mean: 295.8
  Percent open (PCT) Mean: 44.6%
Male C57Bl/6J mice [1]; 300 mg/kg ip alone
  Distance Traveled Open (DTO) Mean: 287.5
  Percent open (PCT) Mean: 45.4%
Male C57Bl/6J mice [1]; Table 6, 300 mg/kg, DOI 2 mg/kg added
  Mean distance travelled in the open arm of the EPM: 369.70
Male C57Bl/6J mice [1]; agent alone vs control, doses of Tables 1 and 2
  Effect on distance travelled in open arm / % time in open arm of EPM, in words: selectively increases % time in open arms at a dose of 300 mg/kg but not at a dose of 30 mg/kg
Male BalbC/J mice; DCS 30 mg/kg in combination with lurasidone
  Effect on immobility in the forced swim test, in words: did not significantly reduce immobility
Male BalbC/J mice; DCS 30 mg/kg, IP or PO (FIGS. 1 and 2)
  Effect in the forced swim test assay, in words: no significant effect
Male BalbC/J mice; DCS 100 mg/kg or above, PO or IP (FIGS. 1 and 2)
  Effect in the forced swim test assay, in words: highly significant
Male BalbC/J mice; DCS 300 mg/kg in combination with aripiprazole
  Effect on immobility in the forced swim test, in words: did not significantly reduce immobility
Male BalbC/J mice; DCS 300 mg/kg in combination with brexpiprazole
  Effect on immobility in the forced swim test, in words: significantly reduced immobility
Male BalbC/J mice; DCS 300 mg/kg in combination with lurasidone 0.2 to 3 mg/kg
  Effect on immobility in the forced swim test, in words: significantly reduced immobility
[2]; 30 mg/kg IP, mice
  Mean plasma level over 30-120 min: below 25 microgram/mL
[2]; doses of 100 mg/kg or above IP, mice
  Plasma levels over 30-120 min: greater than 25 microgram/mL
[2]; suggested from maximum tolerated dose
  Maximum tolerated blood level: approximately 125 ug/mL
Male C57Bl/6J mice [3]; DCS 300 mg/kg in combination with EMD281,014
  Distance travelled in the open arm and % time in the open arms, in words: numerical increases
Male C57Bl/6J mice [3]; DCS 300 mg/kg in the presence of MDL100,907
  Distance travelled in the open arm and % time in the open arms, in words: significantly increased
[4]; 2 hr after dosing
  Serum concentration: 19.7 microgram/mL
[4]; 6 hr after dosing
  Serum concentration: 18.1 microgram/mL
[4]; single 500 mg dose, fasting, humans (Zhu et al.)
  AUC over 24 hr, median: 214 microgram-hr/mL
[5]
  Hydrolysis of orally administered D-cycloserine during gastric emptying: up to 50%
[6]; 500 mg/day, human PK studies
  Sustained blood levels: below 25 microgram/mL
[6]; corresponding to AUC over 24 hr, 500 mg (Zhu et al.)
  Sustained plasma level, median: 8.9 microgram/mL
[6]; from dose-serum concentration relationship of Hung et al.
  Human dose required to produce a serum level in excess of 25 microgram/mL: exceeding 10 mg/kg

From patent publication US11576911B2, “Composition and method for treatment of depression and psychosis in humans” (Glytech LLC, priority 2012, dated 2023)
